Test results reported in PMC11012124, “Synthesis of Novel Triazine-Based Chalcones and 8,9-dihydro-7H-pyrimido[4,5-b][1,4]diazepines as Potential Leads in the Search of Anticancer, Antibacterial and Antifungal Agents” (International Journal of Molecular Sciences, 2024).

Legend:
A498 = assay: cells; conditions: Homo sapiens, A498, 48 h; for CC50: read-out: LC50
NCI/ADR-RES = assay: cells; conditions: Homo sapiens, 48 h; for CC50: read-out: LC50
DU-145 = assay: cells; conditions: Homo sapiens, DU-145, 48 h; for CC50: read-out: LC50
K-562 = assay: cells; conditions: Homo sapiens, K562, 48 h; for GI50: K-562, 48 h; for CC50: read-out: LC50
TK-10 = assay: cells; conditions: Homo sapiens, TK-10, 48 h; for CC50: read-out: LC50
SF-539 = assay: cells; conditions: Homo sapiens, SF-539, 48 h; for CC50: read-out: LC50, SF-539, 48 h
SR = assay: cells; conditions: Homo sapiens, 48 h; for CC50: read-out: LC50
HS 578T = assay: cells; conditions: Homo sapiens, 48 h; for CC50: read-out: LC50
HCC-2998 = assay: cells; conditions: Homo sapiens, HCC 2998, 48 h; for CC50: read-out: LC50
T-47D = assay: cells; conditions: Homo sapiens, T47D, 48 h; for CC50: read-out: LC50
UACC-62 = assay: cells; conditions: Homo sapiens, UACC-62, 48 h; for CC50: read-out: LC50
MDA-MB-231/ATCC = assay: cells; conditions: Homo sapiens, MDA-MB-231, 48 h; for CC50: read-out: LC50
PC-3 = assay: cells; conditions: Homo sapiens, PC-3, 48 h; for CC50: read-out: LC50
HT29 = assay: cells; conditions: Homo sapiens, HT-29, 48 h; for CC50: read-out: LC50
HOP-92 = assay: cells; conditions: Homo sapiens, HOP-92, 48 h; for CC50: read-out: LC50
MCF7 = assay: cells; conditions: Homo sapiens, MCF7, 48 h; for CC50: read-out: LC50
CAKI-1 = assay: cells; conditions: Homo sapiens, CAKI-1, 48 h; for CC50: read-out: LC50
NCI-H522 = assay: cells; conditions: Homo sapiens, NCI-H522, 48 h; for CC50: read-out: LC50
MOLT-4 = assay: cells; conditions: Homo sapiens, MOLT-4, 48 h; for CC50: read-out: LC50
OVCAR-3 = assay: cells; conditions: Homo sapiens, OVCAR-3, 48 h; for CC50: read-out: LC50
[1] = Hemolytic activity, spectrophotometric; format: cell-based, human; conditions: human, human red blood cells (huRBC), 5% hematocrit, 200 μg/mL, 37 °C
LOX IMVI = assay: cells; conditions: Homo sapiens, 48 h; for CC50: read-out: LC50, LOX IMVI, 48 h
SK-OV-3 = assay: cells; conditions: Homo sapiens, SK-OV-3, 48 h; for CC50: read-out: LC50
MDA-MB-468 = assay: cells; conditions: Homo sapiens, MDA-MB-468, 48 h; for CC50: read-out: LC50

`COc1cc(/C=C/C(=O)c2ccccc2)ccc1Oc1nc(Nc2ccc(F)cc2)nc(N(C)C)n1` [21a] gave a GI50 (A498) of 27 µM, a CC50 (A498) greater than 100 µM and a GI50 (NCI/ADR-RES) of 7.04 µM. For the same molecule, the CC50 (NCI/ADR-RES) was 58.5 µM, the GI50 (DU-145) was 27.3 µM and the CC50 (DU-145) was greater than 100 µM. The GI50 (K-562) was 3.57 µM, the CC50 (K-562) was greater than 100 µM and the GI50 (TK-10) was 18 µM. For the same molecule, the CC50 (TK-10) was greater than 100 µM, the GI50 (SF-539) was 13.8 µM and the CC50 (SF-539) was 51.7 µM. The GI50 (SR) was 2.9 µM, the CC50 (SR) was greater than 100 µM and the GI50 (HS 578T) was 5.44 µM. For the same molecule, the CC50 (HS 578T) was greater than 100 µM, the GI50 (HCC-2998) was 12.9 µM and the CC50 (HCC-2998) was greater than 100 µM. It also gave a GI50 (T-47D) of 3.36 µM, a CC50 (T-47D) greater than 100 µM and a GI50 (UACC-62) of 4.99 µM. The CC50 (UACC-62) was 79.4 µM, the GI50 (MDA-MB-231/ATCC) was 6.92 µM and the CC50 (MDA-MB-231/ATCC) was 56.1 µM. The GI50 (PC-3) was 10 µM, the CC50 (PC-3) was greater than 100 µM and the GI50 (HT29) was 4.36 µM. It also gave a CC50 (HT29) of 59.7 µM, a GI50 (HOP-92) of 2.08 µM and a CC50 (HOP-92) greater than 100 µM. The GI50 (MCF7) was 3.08 µM, the CC50 (MCF7) was 78.2 µM and the GI50 (CAKI-1) was 5.72 µM. The CC50 (CAKI-1) was greater than 100 µM, the GI50 (NCI-H522) was 5.15 µM and the CC50 (NCI-H522) was greater than 100 µM. It also gave a GI50 (MOLT-4) of 2.56 µM, a CC50 (MOLT-4) greater than 100 µM and a GI50 (OVCAR-3) of 11.8 µM. It also gave a CC50 (OVCAR-3) greater than 100 µM, a hemolysis at 24 h, 200 µg/mL [1] of 2% and a GI50 (LOX IMVI) of 1.6 µM. For the same molecule, the CC50 (LOX IMVI) was 6.23 µM, the GI50 (SK-OV-3) was 48.6 µM and the CC50 (SK-OV-3) was greater than 100 µM. For the same molecule, the GI50 (MDA-MB-468) was 3.21 µM and the CC50 (MDA-MB-468) was greater than 100 µM.
For `COc1cc(/C=C/C(=O)c2ccc(C)cc2)ccc1Oc1nc(Nc2ccc(F)cc2)nc(N(C)C)n1` [21b], the GI50 (A498) was 41.8 µM, the CC50 (A498) was greater than 100 µM and the GI50 (NCI/ADR-RES) was 5.97 µM. It also gave a CC50 (NCI/ADR-RES) greater than 100 µM, a GI50 (DU-145) of 25.8 µM and a CC50 (DU-145) greater than 100 µM. The GI50 (K-562) was 4.2 µM, the CC50 (K-562) was greater than 100 µM and the GI50 (TK-10) was 18.2 µM. For the same molecule, the CC50 (TK-10) was greater than 100 µM, the GI50 (SF-539) was 7.64 µM and the CC50 (SF-539) was 44.9 µM. It also gave a GI50 (SR) of 3.25 µM, a CC50 (SR) greater than 100 µM and a GI50 (HS 578T) of 7.24 µM. For the same molecule, the CC50 (HS 578T) was greater than 100 µM, the GI50 (HCC-2998) was 20.5 µM and the CC50 (HCC-2998) was greater than 100 µM. It also gave a GI50 (T-47D) of 3.57 µM, a CC50 (T-47D) greater than 100 µM and a GI50 (UACC-62) of 10.1 µM. For the same molecule, the CC50 (UACC-62) was greater than 100 µM, the GI50 (MDA-MB-231/ATCC) was 5.24 µM and the CC50 (MDA-MB-231/ATCC) was 50.8 µM. The GI50 (PC-3) was 8.85 µM, the CC50 (PC-3) was greater than 100 µM and the GI50 (HT29) was 8.15 µM. For the same molecule, the CC50 (HT29) was greater than 100 µM, the GI50 (HOP-92) was 4.57 µM and the CC50 (HOP-92) was greater than 100 µM. For the same molecule, the GI50 (MCF7) was 3.57 µM, the CC50 (MCF7) was greater than 100 µM and the GI50 (CAKI-1) was 6.43 µM. It also gave a CC50 (CAKI-1) greater than 100 µM, a GI50 (NCI-H522) of 9.76 µM and a CC50 (NCI-H522) greater than 100 µM. It also gave a GI50 (MOLT-4) of 2.8 µM, a CC50 (MOLT-4) greater than 100 µM and a GI50 (OVCAR-3) of 13 µM. The CC50 (OVCAR-3) was greater than 100 µM, the hemolysis at 24 h, 200 µg/mL [1] was 13% and the GI50 (LOX IMVI) was 1.84 µM. The CC50 (LOX IMVI) was 6.69 µM, the GI50 (SK-OV-3) was 48.9 µM and the CC50 (SK-OV-3) was greater than 100 µM. The GI50 (MDA-MB-468) was 4.64 µM and the CC50 (MDA-MB-468) was greater than 100 µM.
